Test results: publication PMC7681098 (Theranostics, 2021)
Read-outs that look alike come from different tables or passages of the source.

Experiments:
FLT3 [1] = experiment: PD study in subcutaneous MV4-11 xenograft mice; assay type: in vivo, BALB/c nude mice; settings: single dose 10 mg/kg intravenous
Method: An MV4-11 cell tumor model was established by subcutaneous injection. Six-week-old female BALB/c nude mice were used for the subcutaneous model. […] Mice were sacrificed and tumor tissues were freshly dissected, homogenized, and centrifuged at 16000 g for 20 min. The phosphorylation levels of FLT3 were measured by Western blot.
Blue square and solid line represent intravenous injection administration. […] Mice were sacrificed at indicated time points and then tumor tissues were dissected and lysed. Phosphorylation levels of FLT3, STAT5 and ERK1/2 were measured by western blotting. (C) Bone marrow mononuclear cells (BMMCs) were isolated from healthy C57BL/6 mice. […] Apoptosis assays were conducted after 36-hour incubation. […] 24 h after the last administration, c-Kit^+ cells were evaluated by flow cytometry. […] Data were shown with mean±SD.

FLT3 [2] = target: FLT3 (Homo sapiens, UniProt P36888); experiment: FLT3 autophosphorylation by western blot in MV4-11 and MOLM13 cells; assay type: cell-based; settings: 2 h, read-out: IC50 of inhibition of FLT3 autophosphorylation
FLT3 (Homo sapiens, UniProt P36888), sequence (P36888 610-943 limits assumed): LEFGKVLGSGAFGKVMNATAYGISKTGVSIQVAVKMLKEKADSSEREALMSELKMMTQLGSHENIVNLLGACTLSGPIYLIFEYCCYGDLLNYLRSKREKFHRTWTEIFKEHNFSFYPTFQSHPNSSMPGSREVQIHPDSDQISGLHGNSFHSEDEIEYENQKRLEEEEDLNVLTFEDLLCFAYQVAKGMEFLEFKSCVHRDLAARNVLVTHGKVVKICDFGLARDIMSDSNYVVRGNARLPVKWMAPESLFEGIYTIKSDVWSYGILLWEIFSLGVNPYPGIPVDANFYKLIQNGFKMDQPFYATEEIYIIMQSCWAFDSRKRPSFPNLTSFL
Method: Western blot analysis was performed as previously described. AML cell lines, BaF3 transformed cell lines and human primary cells were treated with the indicated concentration of FLT3 inhibitors for 2 h. To examine the phosphorylation levels of FLT3-Y591 (Cat. #3464s), p44/42-Thr202/Tyr204 (Cat. #4370), whole-cell lysates were subjected to immunoblotting with the corresponding primary antibodies from Cell Signaling Technology (MA, USA). Anti-STAT5 (Cat. #a7733), anti-STAT5-Y694 (Cat. #ap0070), anti-ERK1/2 (Cat. #a1013), anti-AKT (Cat. #a7270), anti-AKT-Ser473 (Cat. #ap0098), anti-Caspase 3 (Cat. #a11021), anti-PARP1 (Cat. #a0010), anti-Bcl2 (Cat. #a19693), anti-Mcl-1 (Cat. #a0434), anti-Pim2 (Cat. #a9230), anti-Caspase8 (Cat. #a19549) and anti-FLT3 (Cat. #a12437) were purchased from ABclonal Company (Wuhan, China).
(A) Chemical structure of LT-171-861. […] Data were then fitted to obtain KD value. […] Data were first normalized by setting the highest and lowest value in each set to 100% and 0% respectively. Data were obtained in the presence of the LT-171-861 (blue circle) as positive the control and DMSO (red square) as the negative control. All experiments were performed at three independent occasions and data are given as the mean ± SD. […] Cell viability was evaluated by MTT assay respectively. The IC50 values were calculated using nonlinear regression.

MV4-11 = experiment: Cell proliferation MTT assay; assay type: cell-based; settings: Homo sapiens, 72 h, read-out: Human leukemia cell line IC50 MV4-11
Method: (§1) The conditional medium (CM) was prepared from the supernatant of HS-5 cell culture for 5 days under normal culture conditions. At the indicated time point, cell viability was evaluated by MTT assay.

MOLM13 = experiment: Cell proliferation MTT assay; assay type: cell-based; settings: Homo sapiens, MOLM-13, 72 h, read-out: Human leukemia cell line IC50 MOLM13
Method: as §1

U937 = experiment: Cell proliferation MTT assay; assay type: cell-based; settings: Homo sapiens, U-937, 72 h, wild-type FLT3, read-out: Human leukemia cell line IC50 U937
Method: as §1

THP-1 = experiment: Cell proliferation MTT assay; assay type: cell-based; settings: Homo sapiens, 72 h, wild-type FLT3, read-out: Human leukemia cell line IC50 THP-1
Method: as §1

MV4-11 cells = experiment: Bone marrow engrafted model, survival; assay type: in vivo, NOD-SCID mice; settings: MV4-11 bone marrow engraftment; LT-171-861 10 mg/kg every other day, sorafenib orally every day
Method: Six-week-old female NOD-SCID mice were treated with sub-lethal dose radiation (1.8 Gy) before intravenous injection of MV4-11 cells (5×10^6) or MOLM13 cells (5×10^6).
Data were shown as mean±SD. […] Data were shown as mean±SD. (C) An engrafted tumor model was used to evaluate in vivo antitumor activity. The NOD/SCID mice were intravenously inoculated with MV4-11 cells. […] Log-rank testing was used to compare survival curves among treatment groups. […] (D) Apoptotic assays in engraft model were evaluated by TUNEL assay and cell proliferative activity was measured by Ki67 assay. Images were acquired at ×40 magnification. (E) BALB/c nude mice were subcutaneously inoculated with MV4-11 cells (5×10^6) and bodyweight of each mouse was recorded every other day. (F) Representative photo of tumors from BALB/c nude mice which were inoculated with MV4-11 cells. (G) BALB/c nude mice were subcutaneously inoculated with BaF3 cells bearing FLT3-ITD-N676D (n=6) and FLT3-ITD-F691L (n=6) respectively. […] (H) BALB/c mice were intravenously inoculated with cells used in (G). […] Log-rank testing was used to compare survival curves among treatment groups. […] (I) Representative photos of spleens dissected from mice in (H) inoculated with BaF3 cells bearing FLT-3-ITD-F691L.
Mice that received vehicle treatment died within 30 days after intravenous injection of MV4-11 cells.

FMS = target: T1, FMS (Homo sapiens, UniProt P07333); experiment: Kinase inhibition assay (Reaction Biology); assay type: biochemical
T1 construct: purchased Reaction Biology Corporation (PA, USA)
T1 sequence (P07333 20-972): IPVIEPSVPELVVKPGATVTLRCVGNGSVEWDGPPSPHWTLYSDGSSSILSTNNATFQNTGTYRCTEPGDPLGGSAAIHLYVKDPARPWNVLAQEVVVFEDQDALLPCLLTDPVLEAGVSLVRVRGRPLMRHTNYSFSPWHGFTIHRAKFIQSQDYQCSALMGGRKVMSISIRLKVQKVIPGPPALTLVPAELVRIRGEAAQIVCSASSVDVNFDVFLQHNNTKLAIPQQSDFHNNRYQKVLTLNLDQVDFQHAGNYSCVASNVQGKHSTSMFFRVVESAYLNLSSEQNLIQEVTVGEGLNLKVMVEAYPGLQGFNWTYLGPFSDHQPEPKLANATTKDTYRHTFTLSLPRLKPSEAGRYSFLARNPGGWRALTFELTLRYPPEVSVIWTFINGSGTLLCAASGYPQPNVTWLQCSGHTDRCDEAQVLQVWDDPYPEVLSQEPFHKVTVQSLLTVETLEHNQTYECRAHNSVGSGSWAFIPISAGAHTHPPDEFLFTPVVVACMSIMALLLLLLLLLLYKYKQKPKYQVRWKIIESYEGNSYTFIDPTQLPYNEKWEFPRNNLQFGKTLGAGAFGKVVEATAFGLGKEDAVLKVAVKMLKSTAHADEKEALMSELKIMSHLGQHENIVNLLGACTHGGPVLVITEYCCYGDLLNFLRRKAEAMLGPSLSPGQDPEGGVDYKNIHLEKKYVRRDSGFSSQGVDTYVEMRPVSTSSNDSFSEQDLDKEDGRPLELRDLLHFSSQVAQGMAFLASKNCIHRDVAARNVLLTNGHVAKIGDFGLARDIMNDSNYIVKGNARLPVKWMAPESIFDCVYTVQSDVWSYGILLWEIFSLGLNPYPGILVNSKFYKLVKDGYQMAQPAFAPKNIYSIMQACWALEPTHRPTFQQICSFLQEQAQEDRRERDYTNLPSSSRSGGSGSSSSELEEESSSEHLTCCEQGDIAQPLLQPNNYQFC

[3] = system: AML patient blasts expressing FLT3-ITD; experiment: Viability of AML patient blasts (MTT); assay type: cell-based, human; settings: 72 h, compared with AC220 and sorafenib

CN1CCN(Cc2ccc(NC(=O)c3n[nH]cc3Nc3ncnc4[nH]ccc34)cc2)CC1 [LT-171-861]
duration of inhibition of FLT3 autophosphorylation and downstream effectors (FLT3 [1]): 24 h | inhibition of p-FLT3, p-STAT5 and p-ERK1/2 in tumor (FLT3 [1]; western blot): sustained inhibition | IC50 (FLT3 [2]): ≤ 40 nM | IC50 (MV4-11): 1.8 nM | IC50 (MOLM13): 1.3 nM | IC50 (U937): 495 nM | IC50 (THP-1): 504 nM | survival versus vehicle (MV4-11 cells): increased survival rates | IC50 (FMS): > 200 nM | IC50 (FMS; 10 μM ATP, 10-dose IC50 mode): 247 nM | antileukemic activity in blasts with FLT3-ITD mutations [3]: comparable antileukemic activity
